# Legend:
# [1] = target: T1, Somatostatin receptor type 2 (Homo sapiens, UniProt P30874); experiment: Inhibitory constant against human sst2 receptor at a dose of 10 uM
# [2] = target: T2, Somatostatin receptor type 5 (Homo sapiens, UniProt P35346); experiment: Inhibitory constant against human sst5 receptor at a dose of 10 uM
# [3] = target: T1, Somatostatin receptor type 2; experiment: Inhibition of forskolin-induced cAMP accumulation in CHO-K1 cells expressing human sst2 receptor; format: functional, cell-based
# [4] = target: Somatostatin receptor type 4 (Homo sapiens, UniProt P31391); experiment: Binding affinity against human sst4 receptor at a dose of 10 uM
# Somatostatin receptor type 4, sequence (P31391 whole entry): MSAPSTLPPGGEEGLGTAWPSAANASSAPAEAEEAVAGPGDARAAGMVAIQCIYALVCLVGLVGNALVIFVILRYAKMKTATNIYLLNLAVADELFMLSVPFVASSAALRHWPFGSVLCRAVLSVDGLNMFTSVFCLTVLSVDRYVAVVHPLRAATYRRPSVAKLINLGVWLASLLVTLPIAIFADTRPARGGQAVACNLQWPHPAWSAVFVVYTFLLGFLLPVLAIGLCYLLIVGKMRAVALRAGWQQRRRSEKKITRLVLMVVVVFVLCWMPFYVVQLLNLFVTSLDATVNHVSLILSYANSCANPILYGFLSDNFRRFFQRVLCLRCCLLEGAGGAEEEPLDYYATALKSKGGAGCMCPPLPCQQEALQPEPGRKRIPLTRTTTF
# [5] = target: Somatostatin receptor type 3 (Homo sapiens, UniProt P32745); experiment: Binding affinity against human sst3 receptor at 10 uM
# Somatostatin receptor type 3, sequence (P32745 whole entry): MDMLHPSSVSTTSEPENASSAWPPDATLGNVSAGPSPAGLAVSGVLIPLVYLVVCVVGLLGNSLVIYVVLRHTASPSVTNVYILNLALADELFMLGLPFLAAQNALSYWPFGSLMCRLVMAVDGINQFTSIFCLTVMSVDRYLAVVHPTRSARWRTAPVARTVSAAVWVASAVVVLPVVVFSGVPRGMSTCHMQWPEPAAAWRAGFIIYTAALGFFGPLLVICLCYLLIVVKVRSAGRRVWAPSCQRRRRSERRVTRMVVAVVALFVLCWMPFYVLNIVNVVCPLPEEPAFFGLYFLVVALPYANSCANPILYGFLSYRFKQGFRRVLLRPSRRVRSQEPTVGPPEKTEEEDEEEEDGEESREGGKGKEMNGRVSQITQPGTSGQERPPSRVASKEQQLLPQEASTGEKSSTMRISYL
# [6] = target: Somatostatin receptor type 1 (Homo sapiens, UniProt P30872); experiment: Binding affinity against human sst1 receptor at a dose of 10 uM
# Somatostatin receptor type 1, sequence (P30872 whole entry): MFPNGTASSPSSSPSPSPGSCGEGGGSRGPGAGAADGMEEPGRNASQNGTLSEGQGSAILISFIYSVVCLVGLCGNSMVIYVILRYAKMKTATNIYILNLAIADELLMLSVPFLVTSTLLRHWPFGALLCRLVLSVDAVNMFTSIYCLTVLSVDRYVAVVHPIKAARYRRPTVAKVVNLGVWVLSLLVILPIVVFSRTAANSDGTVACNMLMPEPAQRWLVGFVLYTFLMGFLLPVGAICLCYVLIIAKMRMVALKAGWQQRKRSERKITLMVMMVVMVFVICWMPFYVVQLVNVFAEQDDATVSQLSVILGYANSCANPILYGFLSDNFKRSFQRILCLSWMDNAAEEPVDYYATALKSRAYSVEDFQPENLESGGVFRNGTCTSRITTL
# [7] = target: T2, Somatostatin receptor type 5; experiment: Inhibition of forskolin-induced cAMP accumulation in CHO-K1 cells expressing human sst5 receptor; format: functional, cell-based
# T1 sequence (P30874 whole entry): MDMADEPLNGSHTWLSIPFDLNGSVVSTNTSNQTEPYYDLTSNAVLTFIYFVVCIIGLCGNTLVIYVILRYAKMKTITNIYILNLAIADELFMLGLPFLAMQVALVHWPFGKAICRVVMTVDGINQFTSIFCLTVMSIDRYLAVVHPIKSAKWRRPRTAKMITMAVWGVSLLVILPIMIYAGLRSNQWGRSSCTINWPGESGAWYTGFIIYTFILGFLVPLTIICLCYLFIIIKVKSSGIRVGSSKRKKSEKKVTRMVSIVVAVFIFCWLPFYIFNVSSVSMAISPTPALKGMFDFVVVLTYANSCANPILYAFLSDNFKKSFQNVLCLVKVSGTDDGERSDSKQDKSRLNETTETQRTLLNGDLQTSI
# T2 sequence (P35346 whole entry): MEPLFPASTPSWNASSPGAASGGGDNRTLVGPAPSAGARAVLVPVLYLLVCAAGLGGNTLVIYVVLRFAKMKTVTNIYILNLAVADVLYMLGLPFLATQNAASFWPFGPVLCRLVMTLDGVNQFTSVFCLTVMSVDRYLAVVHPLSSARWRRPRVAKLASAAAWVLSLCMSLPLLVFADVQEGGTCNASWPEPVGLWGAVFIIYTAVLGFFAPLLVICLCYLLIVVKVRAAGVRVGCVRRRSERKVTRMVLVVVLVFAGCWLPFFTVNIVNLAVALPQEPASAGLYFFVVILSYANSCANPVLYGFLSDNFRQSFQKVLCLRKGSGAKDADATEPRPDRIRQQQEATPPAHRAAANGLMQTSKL
SMILES,Ki [1],Ki [2],EC50 [3],Ki [4],Ki [5],Ki [6],EC50 [7]
CCc1ccc(-c2nnc(SCCc3c[nH]c4ccccc34)n2CCCCN)cc1,430 nM,26 nM,,,,,
Cc1cccc2c(C(=O)CCSc3nnc(-c4ccc5ccccc5n4)n3CCCCN)c[nH]c12,2 nM,0.38 nM,4 nM,800 nM,170 nM,530 nM,2.3 nM
NCCCCn1c(SCCc2c[nH]c3ccc(Cl)cc23)nnc1-c1ccc2ccccc2n1,5.6 nM,2.3 nM,6.3 nM,,,,52 nM
NCCCCn1c(SCCc2c[nH]c3ccccc23)nnc1-c1cnc2ccccc2n1,32 nM,56 nM,,,,,
NCCCCCn1c(SCCc2c[nH]c3ccccc23)nnc1-c1ccc2ccccc2c1,610 nM,70 nM,,,,,
Cc1cccc2c(C(=O)C(C)(C)CSc3nnc(-c4ccc5ccccc5n4)n3CCCCN)c[nH]c12,23 nM,9.3 nM,,,,,
NCCCCn1c(SCCc2c[nH]c3ccccc23)nnc1-c1cc2ccccc2s1,160 nM,58 nM,,,,,
NCCCCn1c(SCCc2c[nH]c3ccccc23)nnc1-c1cccc(Br)c1,250 nM,51 nM,,,,,
NCCCCn1c(SCCc2c[nH]c3ccccc23)nnc1-c1ccc2ccccc2c1,100 nM,27 nM,,,,,
NCCCCn1c(SCCc2c[nH]c3ccccc23)nnc1-c1cccc2ccccc12,150 nM,410 nM,,,,,
NCCCCn1c(SCCc2c[nH]c3cc(F)ccc23)nnc1-c1ccc2ccccc2n1,2.7 nM,1.7 nM,14 nM,74 nM,100 nM,58 nM,44 nM
NCCCCn1c(SCCc2c[nH]c3c(Cl)cccc23)nnc1-c1ccc2ccccc2n1,4 nM,8.4 nM,,130 nM,97 nM,180 nM,
CN(C)CCCCn1c(SCCc2c[nH]c3ccccc23)nnc1-c1ccc2ccccc2c1,2800 nM,1300 nM,,,,,
NCCCCn1c(SCCc2c[nH]c3ccccc23)nnc1-c1ccc2cc(F)ccc2n1,12 nM,7.8 nM,,,,,
NCCCCn1c(SCCc2c[nH]c3ccccc23)nnc1-c1cccc2cc[nH]c12,220 nM,64 nM,,,,,
Cc1cccc2c(CCSc3nnc(-c4ccc5ccccc5n4)n3CCCCN)c[nH]c12,1.8 nM,2.1 nM,22 nM,140 nM,41 nM,130 nM,34 nM
NCCCn1c(SCCc2c[nH]c3ccccc23)nnc1-c1ccc2ccccc2c1,640 nM,66 nM,,,,,

# Reference: ChEMBL document CHEMBL1139584 (Bioorg Med Chem Lett, 2005)
